“And” between values parts separate entries of the source, which are not always exact repeats. Identical values can stand only once.
Tested on: transformation of CPP1 to CPP2 in pooled human serum
Experiment: In vitro serum calcification propensity (T50) screening assay
Format: biochemical
Design: key to T50: T50 in minutes (time to 50% CPP phase transition)
Details: for activity/unit mass: mean c350 x mw (Na salt); for concentration upon which a T50 of 350 min is reached (c350), mean: mean of n experiments; for Concentration at T50 = 350 min mean ± s.d. (n) (c350): pooled human serum, 10 mM calcium, 6 mM phosphate, 37 °C; for concentration upon which a T50 of 350 min is reached (c350), single experiment: one value per experiment (lab journal reference E05-E40)
Method: The compounds were ranked for calcification inhibition activity using a nanoparticle-based test, developed for risk stratification, which measures the propensity for calcification in patient serum. […] The time, after which 50% of CPP phase transition occurred (T50), was assessed by time-resolved spectrophotometry at 550 nm (Supplementary Fig. 1a).
The screening assay was performed as described previously. In brief, pooled human serum (H4522, Sigma-Aldrich) stored at −20 °C was thawed at 37 °C, centrifuged (10,000 × g, and 4 °C, 30 min) (5427R, Eppendorf, Switzerland), and sterile filtered (0.22 μm filter, Millipore, Merck KGaA) to remove potential cryoprecipitates (cleared human serum). The calcium solution was 40 mM CaCl2 (102382, Merck KGaA) in HBS, pH 7.4 (RT) (100 mM HEPES (H3375, Sigma-Aldrich) and 140 mM NaCl (1734712, Fisher Scientific, Hampton, NH, USA)). […] All salt solutions and buffers were double sterile filtered (0.22 µm) and pre-warmed to 37 °C prior to use. […] The plate was sealed with an adhesive film and the absorption at 550 nm was measured every 3 min with 1 min in-between shaking for a total of 300 cycles at 37 °C using the infinite M200 microplate reader (Tecan, Männedorf, Switzerland). An A550 vs. time graph was generated and T50 (min) (time at half-maximum transition from CPP1 to CPP2) values were derived by sigmoidal curve fit using Prism 8 (nonlinear regression in the log(agonist) vs. response–variable slope (four parameter mode) using the robust fit fitting method, GraphPad Software, San Diego, CA, USA). Activities between compounds were compared by generating a T50 (min) vs. concentration (µM) graph, calculating nonlinear regression and deriving the concentration required to delay T50 to 350 min (c350) using a standard equation for the dose–response curve, Eq. (1), whereby x = [compound], y = time (min), bottom = baseline response, top = maximum response, T50 = [drug] that leads to half-maximum response, and the hill slope is a factor that describes the steepness of the curve.1 y= bottom+top - bottom/1+T50/x^hillslope.

[1] = concentration 1 μM, one value per experiment
[2] = concentration 3 μM, one value per experiment
[3] = concentration 10 μM, one value per experiment
[4] = concentration 30 μM, one value per experiment
[5] = concentration 50 μM, one value per experiment
[6] = concentration 5 μM, one value per experiment
[7] = concentration 15 μM, one value per experiment
[8] = concentration 0.3 μM, one value per experiment

Structure (SMILES): O[C@H]1[C@H](O)[C@@H](O)[C@H](O)[C@@H](O)[C@H]1O [myo-Inositol, myo-inositol]
- T50 (1 µM, individual experiments, Fig. 2a): 207.8 min and 255.6 min and 248.233 min and 290.55 min
- T50 (3 µM, individual experiments, Fig. 2a): 211.367 min and 251.867 min and 315.75 min
- T50 (10 µM, individual experiments, Fig. 2a): 222.4 min and 274.533 min and 249.233 min and 297.6 min
- T50 (30 µM, individual experiments, Fig. 2a): 215.55 min and 286.233 min and 247.167 min and 309.65 min
- T50 (50 µM, individual experiments, Fig. 2a): 213.1 min and 307.8 min
- T50 (100 µM, individual experiments, Fig. 2a): 291.467 min and 250.833 min
- T50 [1]: 207.8 and 255.6 and 248.233 and 290.55
- T50 [2]: 211.367 and 251.867 and 315.75
- T50 [3]: 222.4 and 274.533 and 249.233 and 297.6
- T50 [4]: 215.55 and 286.233 and 247.167 and 309.65
- T50 [5]: 213.1 and 307.8
- T50 (concentration 100 μM, one value per experiment): 291.467 and 250.833
- activity/unit mass: 18.02 mg/L
- concentration upon which a T50 of 350 min is reached (c350), mean: > 100 µM
- Concentration at T50 = 350 min mean ± s.d. (n) (c350): >100 (4) µM and >18.0 (4) mg/L

Structure (SMILES): CC(O)(P(=O)(O)O)P(=O)(O)O [Etidronate, etidronate]
- T50 [1]: 222.567 and 215.333 and 215.167
- T50 [2]: 248.167 and 245.7 and 237.9
- T50 [6]: 290 and 263.6 and 286.233
- T50 [3]: 321.233 and 361.6
- T50 [7]: 433.033 and 458.567
- T50 [4]: 729.533
- activity/unit mass: 2.61 mg/L
- concentration upon which a T50 of 350 min is reached (c350), mean: 10.5 µM
- concentration upon which a T50 of 350 min is reached (c350), single experiment: 9.9 µM and 11.5 µM and 11.3 µM and 9.1 µM
- Concentration at T50 = 350 min mean ± s.d. (n) (c350): 10.5 ± 1.1 (4) µM and 2.6 ± 0.3 (4) mg/L

Structure (SMILES): COCCOCCOCCOCCOCCOCCOCCOCCOCCOCCOCCO[C@@H]1[C@@H](OP(=O)(O)O)[C@H](OP(=O)(O)O)[C@@H](OP(=O)(O)O)[C@@H](OP(=O)(O)O)[C@H]1OP(=O)(O)O (racemic) [OEG11-IP5, (±)-6-O-(methoxy-undecaethyleneglycol)-myo-inositol-1,2,3,4,5-pentakis(phosphate)]
- T50 [8]: 222.7 and 220.167 and 220.4
- T50 [1]: 258.35 and 236.633 and 236.5
- T50 [2]: 294.167 and 279.867 and 265.867
- T50 [3]: 559.8 and 530.3 and 501.9
- activity/unit mass: 6.84 mg/L
- concentration upon which a T50 of 350 min is reached (c350), mean: 5.3 µM
- concentration upon which a T50 of 350 min is reached (c350), single experiment: 4.6 µM and 5.2 µM and 6.0 µM
- Concentration at T50 = 350 min mean ± s.d. (n) (c350): 5.3 ± 0.7 (3) µM and 6.8 ± 0.9 (3) mg/L

Structure (SMILES): COCCOCCO[C@H]1[C@@H](OP(=O)(O)O)[C@H](OP(=O)(O)O)[C@@H](OP(=O)(O)O)[C@H](OP(=O)(O)O)[C@H]1OP(=O)(O)O [2-mono-OEG2-IP5, (±)-2-O-(methoxy-diethyleneglycol)-myo-inositol-1,2,3,5,6-pentakis(phosphate)]
- Concentration at T50 = 350 min mean ± s.d. (n) (c350): 8.8 ± 0.1 µM
- Concentration at T50 = 350 min mean ± s.d. (n) (c350) (listed as (±)-2-O-(methoxy-diethyleneglycol)-myo-inositol-1,2,3,5,6-pentakis(phosphate)): 7.9 ± 0.1 mg/L
- c350 (unit not printed in the sentence (equals mg/L column of rebuttal Table 1)): 7.9 ± 0.1

Structure (SMILES): COCCOCCO[C@H]1[C@H](OP(=O)(O)O)[C@H](OCCOCCOC)[C@H](OP(=O)(O)O)[C@@H](OCCOCCOC)[C@@H]1OP(=O)(O)O [(OEG2)3-IP3, 2,4,6-Tri-O-(methoxy-diethyleneglycol)-myo-inositol-1,3,5-tris(phosphate)]
- T50 [1]: 250.8 and 223.6 and 227.933
- T50 [2]: 288.867 and 266.233 and 265.7
- T50 [6]: 325.1 and 295.733 and 294.5
- T50 [3]: 440.6 and 395.433 and 411.533
- activity/unit mass: 5.43 mg/L
- concentration upon which a T50 of 350 min is reached (c350), mean: 7.1 µM
- concentration upon which a T50 of 350 min is reached (c350), single experiment: 6.1 µM and 7.7 µM and 7.4 µM
- Concentration at T50 = 350 min mean ± s.d. (n) (c350): 7.1 ± 0.9 (3) µM and 5.4 ± 0.7 (3) mg/L

Structure (SMILES): COCCOCCOCCOCCOCCOCCOCCOCCOCCOCCOCCO[C@@H]1[C@@H](OS(=O)(=O)O)[C@H](OP(=O)(O)O)[C@@H](OS(=O)(=O)O)[C@@H](OP(=O)(O)O)[C@H]1OS(=O)(=O)O (racemic) [OEG11-IP2S3, (±)-4-O-(methoxy-undecaethyleneglycol)-1,3,5-O-tris(sulfato)-myo-inositol-2,6-O-bis(phosphate)]
- T50 [8]: 256.3
- T50 [1]: 217.567 and 236.467 and 212.467
- T50 [2]: 261.167 and 253.1 and 226.6
- T50 [3]: 303.9 and 300.967 and 303.767 and 294.6
- T50 [4]: 430.533 and 413.2 and 437.833 and 410.233
- T50 [5]: 586.8 and 587.733 and 528.367
- activity/unit mass: 22.87 mg/L
- concentration upon which a T50 of 350 min is reached (c350), mean: 18.6 µM
- concentration upon which a T50 of 350 min is reached (c350), single experiment: 16.2 µM and 19.4 µM and 17.1 µM and 19.2 µM and 20.9 µM
- Concentration at T50 = 350 min mean ± s.d. (n) (c350): 18.6 ± 1.9 (5) µM and 22.9 ± 2.3 (5) mg/L

Structure (SMILES): OP(O)(=S)O[C@H]1[C@H](OP(O)(O)=S)[C@@H](OP(O)(O)=S)[C@H](OP(O)(O)=S)[C@@H](OP(O)(O)=S)[C@H]1OP(O)(O)=S [IT6, myo-Inositol hexathiophosphate]
- T50 [1]: 209.1 and 228.433 and 226.433
- T50 [2]: 226.567 and 251.033 and 247.133
- T50 [3]: 291.533 and 299.233 and 300.133
- T50 [4]: 577.433 and 598.2 and 571.6
- activity/unit mass: 12.79 mg/L
- concentration upon which a T50 of 350 min is reached (c350), mean: 14.4 µM
- concentration upon which a T50 of 350 min is reached (c350), single experiment: 14.7 µM and 14.2 µM and 14.3 µM
- Concentration at T50 = 350 min mean ± s.d. (n) (c350): 14.4 ± 0.3 (3) µM

Structure (SMILES): O=P(O)(O)OP(=O)(O)O [PPi, sodium pyrophosphate]
- T50 [1]: 217.433
- T50 [2]: 221.633 and 215.733 and 209.467
- T50 [3]: 255.8 and 265.133 and 242.367
- T50 [7]: 287.067 and 306.267 and 274.667
- T50 [4]: 364.3 and 363.867 and 345.167
- T50 [5]: 483 and 451.167
- concentration upon which a T50 of 350 min is reached (c350), mean: 27.4 µM
- concentration upon which a T50 of 350 min is reached (c350), single experiment: 26.6 µM and 25 µM and 30.5 µM
- Concentration at T50 = 350 min mean ± s.d. (n) (c350): 27.4 ± 2.8 (3) µM and 7.3 ± 0.8 (3) mg/L

Structure (SMILES): O=P(O)(O)O[C@@H]1[C@@H](O)[C@@H](OP(=O)(O)O)[C@@H](O)[C@H](O)[C@H]1O [IP2, myo-Inositol-2,4-diphosphate]
- T50 [1]: 228.333 and 230.233 and 205.967
- T50 [2]: 236.4 and 226.467 and 221.933
- T50 [3]: 274.433 and 257.367 and 241.267
- T50 [4]: 358.8 and 323.1 and 304.6
- T50 [5]: 407.867 and 425.367 and 375.7
- concentration upon which a T50 of 350 min is reached (c350), mean: 35.0 µM
- concentration upon which a T50 of 350 min is reached (c350), single experiment: 27.3 µM and 35.1 µM and 42.7 µM
- Concentration at T50 = 350 min mean ± s.d. (n) (c350): 35.0 ± 7.7 (3) µM and 15.0 ± 3.3 (3) mg/L

Structure (SMILES): O=P(O)(O)O[C@@H]1[C@H](O)[C@H](O)[C@@H](OP(=O)(O)O)[C@H](OP(=O)(O)O)[C@H]1O [IP3, myo-Inositol-1,4,5-triphosphate]
- T50 [1]: 226 and 227.733 and 222.3
- T50 [2]: 236 and 220.433 and 234.133
- T50 [3]: 306.433 and 280.567 and 269.467
- T50 [4]: 515.9 and 500.567 and 450.3
- T50 [5]: 814.5 and 889.4 and 828.767
- concentration upon which a T50 of 350 min is reached (c350), mean: 18.6 µM
- concentration upon which a T50 of 350 min is reached (c350), single experiment: 15.5 µM and 18.6 µM and 21.6 µM
- Concentration at T50 = 350 min mean ± s.d. (n) (c350): 18.6 ± 3.1 (3) µM and 10.2 ± 1.7 (3) mg/L

Reference: article PMC7002685, “Inhibition of vascular calcification by inositol phosphates derivatized with ethylene glycol oligomers” (Nature Communications, 2020)
